Data from patent publication US12435038B2 (KUNMING SINOWAY NATURAL PHARMACEUTICALS CO., LTD., priority 2019, dated 2025).

Assays:
[1] = Powder properties of amlodipine mesylate monohydrate crystals (particle size distribution, carr index, angle of repose, bulk density); assay type: physicochemical; conditions: API crystals
Excerpt: The Carr index and angle of repose are indications of the flowability of a powdery material. To a certain extent, the Carr index is an indication of the compressibility of a powdery material. Carr index=(tap density-bulk density)/tap density*100%.
The angle of repose (α) refers to the maximum angle formed between the free inclined plane and the horizontal plane in a powder piled layer. The smaller the angle of repose (α) is, the better the flowability is. It is generally believed that the powder can flow freely if the a is less than 30°, and the flowability of the power is acceptable if the a is between 30° and 40°, while the power may have poor flowability if the a is greater than 40°.
The particle size of crystals can be measured by a Malvern Lazer Particle Analyzer which is a dry method. The particle size is related to the fluidity of a powder, and generally the larger the particle size is and the more concentrated the particle distribution is, the better the fluidity is. During the crystallization process, an average particle size (D50) of less than 15 μm may lead to difficulty in filtration and drying and easy to carry and absorb more impurities. Furthermore, the uniformity of particle size distribution can also have an impact on the properties of APIs.
(§1) Determination of other parameters of API or tablets of amlodipine mesylate monohydrate regarding quality such as water content, angle of repose, carr index, particle size, bulk density, and the like, is conduct with conventional methods well known to those skilled in the art.

[2] = Accelerated test of the API (sealed in aluminum-plastic composite film bags, 40° C., 75% RH); assay type: physicochemical; conditions: mesylate monohydrate
Excerpt: as §1

[3] = cited from earlier work

amlodipine mesylate monohydrate [Experimental Example 2]
particle size distribution D10 [1]: 32 μm | particle size distribution D50 [1]: 68 μm | particle size distribution D90 [1]: 117 μm

amlodipine mesylate monohydrate [Example 3]
Average particle size ([2]; 0 month): 70.1 μm | Bulk density ([2]; 0 month): 0.30 g/mL | Carr index ([2]; 0 month): 24% | Character ([2]; 0 month): White solid | Content ([2]; 0 month): 99.93% | Related substance ([2]; 0 month): 0.07% | Water content ([2]; 0 month): 3.50% | Average particle size ([2]; 3 months): 69.5 μm | Bulk density ([2]; 3 months): 0.31 g/mL | Carr index ([2]; 3 months): 23% | Character ([2]; 3 months): White solid | Content ([2]; 3 months): 99.82% | Related substance ([2]; 3 months): 0.08% | Water content ([2]; 3 months): 3.48% | Average particle size ([2]; 6 months): 71.4 μm | Bulk density ([2]; 6 months): 0.32 g/mL | Carr index ([2]; 6 months): 25% | Character ([2]; 6 months): White solid | Content ([2]; 6 months): 99.71% | Related substance ([2]; 6 months): 0.10% | Water content ([2]; 6 months): 3.49% | Bulk density [1]: 0.30 g/mL | Carr index [1]: 24% | angle of repose [1]: 33 ° | fluidity (words, from carr index and angle of repose) [1]: good fluidity | particle size distribution D10 [1]: 32.9 μm | particle size distribution D50 [1]: 70.1 μm | particle size distribution D90 [1]: 124 μm

amlodipine mesylate monohydrate [Example 2]
Average particle size ([2]; 0 month): 72.1 μm | Bulk density ([2]; 0 month): 0.33 g/mL | Carr index ([2]; 0 month): 23% | Character ([2]; 0 month): White solid | Content ([2]; 0 month): 99.95% | Related substance ([2]; 0 month): 0.06% | Water content ([2]; 0 month): 3.51% | Average particle size ([2]; 3 months): 71.8 μm | Bulk density ([2]; 3 months): 0.32 g/mL | Carr index ([2]; 3 months): 24% | Character ([2]; 3 months): White solid | Content ([2]; 3 months): 99.81% | Related substance ([2]; 3 months): 0.07% | Water content ([2]; 3 months): 3.52% | Average particle size ([2]; 6 months): 72.4 μm | Bulk density ([2]; 6 months): 0.32 g/mL | Carr index ([2]; 6 months): 24% | Character ([2]; 6 months): White solid | Content ([2]; 6 months): 99.73% | Related substance ([2]; 6 months): 0.08% | Water content ([2]; 6 months): 3.49% | Bulk density [1]: 0.33 g/mL | Carr index [1]: 23% | angle of repose [1]: 31 ° | fluidity (words, from carr index and angle of repose) [1]: good fluidity | particle size distribution D10 [1]: 34.8 μm | particle size distribution D50 [1]: 72.1 μm | particle size distribution D90 [1]: 126 μm

CCOC(=O)C1=C(COCCN)NC(C)=C(C(=O)OC)C1c1ccccc1Cl (stereo not shown) [Amlodipine free base, Amlodipine]
water solubility [3]: poor water solubility

amlodipine mesylate monohydrate [Comparative Example 1, reference compound]
Average particle size ([2]; 0 month): 6.70 μm | Bulk density ([2]; 0 month): 0.22 g/mL | Carr index ([2]; 0 month): 41% | Character ([2]; 0 month): White like | Content ([2]; 0 month): 99.89% | Related substance ([2]; 0 month): 0.12% | Water content ([2]; 0 month): 3.49% | Average particle size ([2]; 3 months): 5.96 μm | Bulk density ([2]; 3 months): 0.25 g/mL | Carr index ([2]; 3 months): 42% | Content ([2]; 3 months): 99.81% | Related substance ([2]; 3 months): 0.18% | Water content ([2]; 3 months): 3.48% | Average particle size ([2]; 6 months): 6.93 μm | Bulk density ([2]; 6 months): 0.26 g/mL | Carr index ([2]; 6 months): 43% | Character ([2]; 6 months): Yellow | Content ([2]; 6 months): 99.71% | Related substance ([2]; 6 months): 0.23% | Water content ([2]; 6 months): 3.51% | Bulk density [1]: 0.22 g/mL | Carr index [1]: 41% | angle of repose [1]: 46 ° | fluidity (words, from carr index and angle of repose) [1]: poor fluidity | particle size distribution D10 [1]: 1.73 μm | particle size distribution D50 [1]: 6.70 μm | particle size distribution D90 [1]: 16.4 μm

amlodipine mesylate monohydrate [Experimental Example 3]
particle size distribution D10 [1]: 34 μm | particle size distribution D50 [1]: 69 μm | particle size distribution D90 [1]: 120 μm

amlodipine mesylate monohydrate [Experimental Example 1]
particle size distribution D10 [1]: 43 μm | particle size distribution D50 [1]: 92 μm | particle size distribution D90 [1]: 151 μm

amlodipine mesylate monohydrate [Example 1]
Average particle size ([2]; 0 month): 70.2 μm | Bulk density ([2]; 0 month): 0.32 g/mL | Carr index ([2]; 0 month): 23% | Character ([2]; 0 month): White solid | Content ([2]; 0 month): 99.92% | Related substance ([2]; 0 month): 0.07% | Water content ([2]; 0 month): 3.51% | Average particle size ([2]; 3 months): 70.6 μm | Bulk density ([2]; 3 months): 0.31 g/mL | Carr index ([2]; 3 months): 23% | Character ([2]; 3 months): White solid | Content ([2]; 3 months): 99.78% | Related substance ([2]; 3 months): 0.07% | Water content ([2]; 3 months): 3.49% | Average particle size ([2]; 6 months): 69.5 μm | Bulk density ([2]; 6 months): 0.33 g/mL | Carr index ([2]; 6 months): 24% | Character ([2]; 6 months): White solid | Content ([2]; 6 months): 99.71% | Related substance ([2]; 6 months): 0.08% | Water content ([2]; 6 months): 3.50% | Bulk density [1]: 0.32 g/mL | Carr index [1]: 23% | angle of repose [1]: 29 ° | fluidity (words, from carr index and angle of repose) [1]: good fluidity | particle size distribution D10 [1]: 33.9 μm | particle size distribution D50 [1]: 70.2 μm | particle size distribution D90 [1]: 121 μm

amlodipine mesylate monohydrate
water solubility [3]: easily soluble in water | solubility relative to that of amlodipine besylate ([3]; in water): more than 10 time

amlodipine mesylate monohydrate [Comparative Example 2, reference compound]
Average particle size ([2]; 0 month): 6.22 μm | Bulk density ([2]; 0 month): 0.26 g/mL | Carr index ([2]; 0 month): 42% | Character ([2]; 0 month): White like | Content ([2]; 0 month): 99.82% | Related substance ([2]; 0 month): 0.11% | Water content ([2]; 0 month): 3.57% | Average particle size ([2]; 3 months): 5.89 μm | Bulk density ([2]; 3 months): 0.27 g/mL | Carr index ([2]; 3 months): 41% | Character ([2]; 3 months): Light yellow | Content ([2]; 3 months): 99.71% | Related substance ([2]; 3 months): 0.18% | Water content ([2]; 3 months): 3.52% | Average particle size ([2]; 6 months): 6.74 μm | Bulk density ([2]; 6 months): 0.25 g/mL | Carr index ([2]; 6 months): 44% | Character ([2]; 6 months): Yellow solid | Content ([2]; 6 months): 99.62% | Related substance ([2]; 6 months): 0.26% | Water content ([2]; 6 months): 3.53% | Bulk density [1]: 0.26 g/mL | Carr index [1]: 42% | angle of repose [1]: 45 ° | fluidity (words, from carr index and angle of repose) [1]: poor fluidity | particle size distribution D10 [1]: 1.62 μm | particle size distribution D50 [1]: 6.22 μm | particle size distribution D90 [1]: 14.1 μm
